The text below walks through data of patent US10093627B2, “Tetrahydroquinoline derivatives and their use as Epac inhibitors” (Institut National de la Sante et de la Recherche Medicale …, priority 2012, dated 2018).

The target in test [1] is T1, Epac1 (Homo sapiens, UniProt O95398).
T1 construct: Recombinant human Epac1 (residues 149-881), deleted of its Dishevelled, Egl-10, and Pleckstrin (DEP) domain; made in house
T1 sequence (O95398 149-881 isoform O95398-3): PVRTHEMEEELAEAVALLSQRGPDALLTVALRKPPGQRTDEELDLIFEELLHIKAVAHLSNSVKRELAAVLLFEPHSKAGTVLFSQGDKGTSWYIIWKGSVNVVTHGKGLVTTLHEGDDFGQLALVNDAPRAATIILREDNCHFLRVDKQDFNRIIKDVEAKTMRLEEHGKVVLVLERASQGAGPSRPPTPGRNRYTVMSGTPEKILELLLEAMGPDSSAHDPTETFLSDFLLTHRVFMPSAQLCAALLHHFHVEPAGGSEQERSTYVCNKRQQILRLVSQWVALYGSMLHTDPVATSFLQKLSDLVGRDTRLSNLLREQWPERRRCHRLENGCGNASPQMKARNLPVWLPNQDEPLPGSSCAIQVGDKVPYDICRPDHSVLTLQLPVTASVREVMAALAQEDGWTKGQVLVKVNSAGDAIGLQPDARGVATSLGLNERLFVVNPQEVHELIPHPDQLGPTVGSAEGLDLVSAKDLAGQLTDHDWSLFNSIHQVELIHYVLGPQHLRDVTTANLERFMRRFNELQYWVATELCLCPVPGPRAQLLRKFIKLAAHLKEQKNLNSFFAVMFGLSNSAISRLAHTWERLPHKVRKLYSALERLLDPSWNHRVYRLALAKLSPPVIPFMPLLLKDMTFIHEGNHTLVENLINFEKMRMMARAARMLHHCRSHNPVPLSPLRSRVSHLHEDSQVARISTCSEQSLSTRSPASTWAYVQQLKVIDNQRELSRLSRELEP
In words: In vitro GEF activity (initial velocity of GDP exchange on Rap1A) of Epac1. The following applies: for Antagonism of cAMP-activated Epac1 GEF activity: compound 30 μM, 300 μM cAMP, FIG. 6C; for EC50: Epac1 GEF activity toward Rap1, Epac1 activated by 20 μM 007, mean of n=4 to 9 independent determinations; for Dose-response curve of inhibition of 007-activated Epac1 GEF activity, comparison between compounds: Epac1 activated by 20 μM 007, FIG. 5. The class given is biochemical. Here is the method: Protein NCBI Reference Sequences for human Epac1 and Epac2 are NP_006096 and NP_008954, respectively. Recombinant human Epac1 (residues 149-881), deleted of its Dishevelled, Egl-10, and Pleckstrin (DEP) domain, and human Rap1A were produced with GST as a fusion tag (D. Courilleau et al., Identification of a tetrahydroquinoline analog as a pharmacological inhibitor of the cAMP-binding protein Epac, J. Biol. Chem. 287 (2012) 44192-44202).
(§1) In vitro GDP exchange catalyzed by Epac was measured using purified recombinant Epac isoforms and Rap1A loaded with Bodipy-GDP, as described in D. Courilleau, et al (above mentioned). The GEF activity of Epac proteins was initiated by injection of the agonist. Stock solutions of CE3F4 and its analogs (12 mM in 100% DMSO) were kept at −20° C. and were diluted in assay buffer (0.67% final DMSO concentration) just before use for GDP exchange assays. The release of Bodipy-GDP was measured in real time as the decay of fluorescence. A single exponential was fit to the time-course data using the Graphpad Prism program. The initial velocity (Vi) of GDP exchange on Rap1 was calculated as described in D. Courilleau et al.).
(§2) Data are expressed as mean±S.D. Differences in quantitative variables were examined by unpaired one- or two-tailed Student's t test. EC50 and IC50 values were computed according to a four-parameters dose-response model and compared on the basis of the extra sum-of square F test, using Graphpad Prism. Two-tailed Wilcoxon matched-pair signed rank tests were performed using GraphPad Prism.

For the next test, the target named is T2, Epac2(B) (Homo sapiens, UniProt Q8WZA2).
T2 construct: Human Epac2(B) (amino acids 283-1011) lacks the first 283 amino acids of Epac2; made in house; host or cells: Escherichia coli Rosetta 2(DE3)
T2 sequence (Q8WZA2 283-1011): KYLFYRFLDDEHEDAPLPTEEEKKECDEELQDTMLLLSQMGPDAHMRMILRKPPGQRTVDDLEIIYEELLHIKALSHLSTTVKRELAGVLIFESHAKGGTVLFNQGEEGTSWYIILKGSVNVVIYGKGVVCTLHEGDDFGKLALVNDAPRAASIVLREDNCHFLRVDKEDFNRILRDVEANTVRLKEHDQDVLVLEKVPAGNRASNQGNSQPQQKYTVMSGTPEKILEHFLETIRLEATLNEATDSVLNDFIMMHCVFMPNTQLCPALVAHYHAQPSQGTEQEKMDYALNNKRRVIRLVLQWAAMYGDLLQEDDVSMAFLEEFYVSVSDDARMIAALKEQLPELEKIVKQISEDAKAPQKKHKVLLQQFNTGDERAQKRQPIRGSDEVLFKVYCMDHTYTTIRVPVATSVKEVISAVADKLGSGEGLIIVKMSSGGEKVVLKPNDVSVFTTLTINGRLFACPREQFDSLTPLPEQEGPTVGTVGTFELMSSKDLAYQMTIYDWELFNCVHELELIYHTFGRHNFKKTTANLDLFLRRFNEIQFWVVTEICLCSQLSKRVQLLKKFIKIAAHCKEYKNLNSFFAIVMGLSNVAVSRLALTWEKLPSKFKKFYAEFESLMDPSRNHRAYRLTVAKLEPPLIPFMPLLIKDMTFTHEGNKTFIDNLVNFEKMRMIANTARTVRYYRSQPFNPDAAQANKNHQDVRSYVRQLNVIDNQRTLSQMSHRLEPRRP
In words: In vitro GEF activity (initial velocity of GDP exchange on Rap1A) of Epac2(B). The class given is biochemical. The following applies: for Antagonism of cAMP-activated Epac2(B) GEF activity: compound 30 μM, 300 μM cAMP, FIG. 6C.
Excerpt: Human Epac2(AB) (amino acids 43-1011) carries both the CNB-A and the CNB-B domains. Human Epac2(B) (amino acids 283-1011) lacks the first 283 amino acids of Epac2. It is therefore deleted of its CNB-A and DEP domains, but retains the CNB-B domain and the full catalytic region. Epac2(AB) was obtained by HindIII/NotI restriction and Epac2(B) was obtained by Ssp1/Not1 restriction of a human Epac2A cDNA (a gift from Ann M Graybiel, Department of Brain and Cognitive Sciences, MIT, Cambridge). Both cDNA fragments were inserted into pET41a (Novagen), expressed in Escherichia coli Rosetta 2(DE3) (Novagen), and the GST-tagged fusion proteins were purified by nickel-nitrilotriacetic acid beads (Qiagen), as described in D. Courilleau, et al., Identification of a tetrahydroquinoline analog as a pharmacological inhibitor of the cAMP-binding protein Epac, J. Biol. Chem. 287 (2012) 44192-44202).
as §1, §2

The test system of test [2] is Epac1-induced Rap1 activation in HEK293 cells. In words: Epac1-induced Rap1 activation, Rap1-GTP pull-down in HEK293 cells. Format: cell-based. As to conditions: HEK293 cells overexpressing Epac1 vs empty vector; FIG. 2A. Here is the method: HEK293 cells were transfected with either pcDNA3 control vector or Epac1 (see FIG. 2A).
HEK293 cells were transfected with Epac1 and 24 h after transfection, cells were preincubated or not with CE3F4 for 30 min and were then treated or not with Sp-007 (10 μM) for 10 min (see FIG. 2B).
HEK293 cells overexpressing β1AR (Beta-1 adrenergic receptors) and transfected with Epac1 were pretreated or not with CE3F4 and stimulated or not with Iso (10 μM) for 10 min (see FIG. 2C).
Amounts of Rap1-GTP were determined by pull-down assays (see Material and Methods). The bar graph represents the mean±S.E.M. of 5 (FIG. 2A, 2B) or 3 (FIG. 2C) independent experiments. Results are expressed as the percentage of unstimulated control cells.
Ras and Rap1 pull-down experiments were performed using a GST fusion protein containing respectively the Ras binding domain of Raf1-RBD and the Rap1 binding domain of Ral-GDS as previously described (Métrich et al., 2008). Cells were starved for 1 h before stimulation in MEM free with penicillin-streptomycin (1%). After stimulation, cells were lysed in RIPA buffer (50 mM Tris-HCl, pH 7.5; 500 mM NaCl; 20 mM MgCl2; 0.5% deoxycholic acid; 0.1% SDS; 1% Triton X-100; 1 mM PMSF; protease and phosphatase inhibitors) and 500 μg of protein were incubated with either GST-Raf1-RBD (for Ras) or Ral-GDS (for Rap1) coupled to glutathione-Sepharose beads (Amersham Biosciences) for 1h at 4° C. Beads were then washed three times in washing buffer (50 mM Tris-HCl, pH 7.5; 150 mM NaCl, 20 mM MgCl2, 1% Triton X-100; 0.1 mM PMSF; protease and phosphatase inhibitors). Rap1-GTP or Ras samples and corresponding total lysates were separated on SDS-PAGE gels and transferred onto a polyvinylidene difluoride (PVDF) membrane (Amersham Pharmacia Biotech).

In test [3] the target is T1, Epac1. In words: Epac1 nucleotide exchange activity, multipoint (time-course) method, bGDP-loaded GST-Rap1A. The following applies: 25 μM compound 009; 2 μM compound 007; FIG. 1. Format: biochemical. Here is the method: Epac1 nucleotide exchange activity was measured: • in the absence of compound 007, • or in the presence of 2 μM of compound 007, either alone or with 25 μM of compound 009, • or with 20 μM of CE3F4.
Variations of RFU (Relative Fluorescence Units) were studied as a function of time and fitted to single exponentials. Reported values are mean±SEM (n=3). (see Materiel and Methods).
Concerning FIG. 1, a “multipoint” (time-course) method was used. All components except the agonist (007) were mixed in a well and the exchange activity of Epac1 was initiated by injection of the agonist. GST-Rapt was preloaded with a fluorescent derivative of GDP, and the Epac1-catalyzed nucleotide exchange was measured using a large excess of non-fluorescent GDP, by taking advantage of the spectroscopic difference between free and Rap1-bound fluorescently labeled GDP. The principle of the method is similar to that reported in particular by Van den Berghe et al. (1997; Oncogene 15, 845), except that Bodipy FL-labeled GDP (bGDP) was used here, rather than 2′,3′-bis(O)—N-methylanthraniloyl-GDP (mant-GDP). […]

Molecules are shown by their SMILES.

In the case of `CC1CCc2cc(F)c(Br)cc2N1C=O` (stereo not shown) [b), reference compound], the “Antagonism of cAMP-activated Epac1 GEF activity” value at Epac1 [1] was “no significant inhibitory activity”. Also, the “Antagonism of cAMP-activated Epac2(B) GEF activity” value at Epac2(B) is recorded as “no significant inhibitory activity”.

On to `CC(=O)N1c2cc(Br)c(F)c(Br)c2CCC1C` (stereo not shown) [g)], for which the “Antagonism of cAMP-activated Epac1 GEF activity” value on Epac1 [1] was “antagonistic properties”.

Take `CC1CCc2c(Br)cc(Br)cc2N1C=O` (stereo not shown) [e)]: on Epac1 [1], the “Antagonism of cAMP-activated Epac1 GEF activity” value is recorded as “antagonistic properties”. The “Antagonism of cAMP-activated Epac2(B) GEF activity” value at Epac2(B) is “antagonistic properties”.

Turning to `CC1CCc2c(cc(Br)c(F)c2Br)N1` (stereo not shown) [h)], on Epac1 [1], the “Antagonism of cAMP-activated Epac1 GEF activity” value was “antagonistic properties”.

With `O=CN1CCCc2c1cc(Br)c(F)c2Br` [Compound f)], at Epac1 [1], the EC50 was determined as 50 µM; the “Dose-response curve of inhibition of 007-activated Epac1 GEF activity, comparison between compounds” value was “not significantly different”; the “Antagonism of cAMP-activated Epac1 GEF activity” value is “antagonistic properties”. The “Antagonism of cAMP-activated Epac2(B) GEF activity” value at Epac2(B) is reported as “antagonistic properties”.

Take `C[C@@H]1CCc2c(cc(Br)c(F)c2Br)N1C=O` [(R)-CE3F4]: at Epac1 [1] (007-activated Epac1), the “IC50 smaller than that of racemic CE3F4 (Epac1 GEF activity)” value is listed as “about 2 fold”; the “IC50 smaller than the IC50 values of (S)-CE3F4 and compound f) (Epac1 GEF activity)” value is given as “about 10 fold”. For the same molecule, on Epac1 [1], the EC50 was 5.8 µM and the “Dose-response curve of inhibition of 007-activated Epac1 GEF activity, comparison between compounds” value is “more potent Epac inhibitor”. At Epac1 [1] (Epac1 activated by 300 μM cAMP), the IC50 is 4.2 µM. This molecule had an IC50 on Epac2(B) (Epac2(B) activated by 300 μM cAMP) of 44 µM.

With `CO[C@H]1C2OP(O)(=S)OC[C@H]2O[C@H]1n1c(Sc2ccc(Cl)cc2)nc2c(N)ncnc21` (stereo partly shown) [Sp-007, Sp-8-pCPT-2′-O-Me-cAMPS, reference compound], the “Rap1 activation (Rap1-GTP/Total Rap1) by agonist” value in test [2] is given as “robust activation of Rap1”.

As to `CC1CCc2c(ccc(F)c2Br)N1C=O` (stereo not shown) [a)], the “Antagonism of cAMP-activated Epac1 GEF activity” value on Epac1 [1] is “antagonistic properties”. Moreover, the “Antagonism of cAMP-activated Epac2(B) GEF activity” value on Epac2(B) was “antagonistic properties”.

Turning to `CC1CCc2c(ccc(F)c2C=O)N1C=O` (stereo not shown) [d), reference compound], on Epac1 [1], the “Antagonism of cAMP-activated Epac1 GEF activity” value is on record as “no significant inhibitory activity”. Moreover, the “Antagonism of cAMP-activated Epac2(B) GEF activity” value on Epac2(B) is on record as “no significant inhibitory activity”.

`Nc1nc2c(nc(Sc3ccc(Cl)cc3)n2[C@@H]2O[C@@H]3COP(=O)(O)O[C@H]3[C@H]2O)c(=O)[nH]1` [Compound 009, 8-(4-chlorophenylthio)-guanosine-3′,5′-cyclic monophosphate, reference compound]: at Epac1 [3], the “Inhibition of the exchange reaction induced by Epac1 plus 007” value is listed as “inhibitory effect”.

A word on the EC50: it is the concentration at which the effect is half-maximal. A high value points to a less potent agent. One may read the IC50 as the midpoint of a concentration-inhibition curve.
